This note sets out measurements from patent publication US20050256179A1, “Selective pharmacologic inhibition of protein trafficking and related methods of treating human diseases” (priority 2003, published 2005).

Common to all, as to format: cell-based
One experiment concerns MOLT4 cells. Kind of experiment: Electron microscopic analysis of golgi structure. Conditions: 200 ng/mL, 2 hrs and 18 hrs. The method, then: Experiments were conducted to examine the golgi structure and morphology on the ultrastructural level following treatment with AVP 893. […] This finding was repeated with Vero cells, where AVP 893 was applied for 1 hr, 4 hrs, and 18 hrs, with the later two exposures resulting in disruption of cisternal structure (data not shown). We therefore conclude that AVP 893 disturbs the structure of the golgi cistemae within a few hours of treatment.

The next experiment has as its system Rab6. As to the kind of experiment: Rab6 expression.
In another experiment the test system is B16F10 cells. As to the kind of experiment: Density gradient centrifugation, intracellular protein distribution. Conditions: B16 cells, 16 hours drug. As to the method:
To test this possibility directly, cells were cultured with and without drug for 16-20 hours, harvested, lysed, and layered on top of a gradient of varying density iodixanol-containing fractions (2.5-30%). The gradients were centrifuged for 2 to 18 hours at 56K x g, collected, and tested for resident proteins via Western blot. Fractions were probed with antibodies specific for calnexin (ER-specific marker), γ-adaptin (golgi), and Rab5a (vesicles). […] FIGS. 34 and 35 also show the unfractionated levels of Rab6 and Rab1B, respectively, that were obtained prior to density gradient centrifugation. No difference in the expression of these 3 marker proteins was observed between the control and drug-treated cells.
B16F10 cells were seeded into 175 cm2 flasks one day prior to drug application. On the subsequent day, fresh media +/−drug was applied to the cultures. 16 hours later, the cells were washed with cold Dulbecco's PBS, then harvested in ice-cold homogenization buffer: 130 mM KCl, 25 mM NaCl, 1 mM EGTA, 25 mM Tris pH7.4, plus 15 ul protease inhibitor per 5 mL buffer. 1 mL of buffer was used per flask, and the cells were scrapped off into 14 mL round-bottom culture tubes and kept on ice. The harvested cells were then homogenized with a tissue homogenizer (Polytron PT10/35), transferred into 2 mL centrifuge tubes, and spun at 1,000 rpm for 8 min at 4° C. […]

For the next experiment, the system named is Rab1a. As to the kind of experiment: Rab1a expression by Western blotting. Conditions: 3T3 cells. As to the method:
Protein samples (in sample buffer) were boiled for 1-3 minutes and put on ice. Same amount of protein were loaded on the NuPage gel (InVitrogen). After the electrophoresis was complete, proteins were transferred from the gel to a PVDF membrane using the electro-blotting apparatus from InVitrogen; the voltage was set to 25 for 2-3 hr. Block non-specific binding by incubating membrane with 5% milk (in PBS, 0.1% tween 20) for at least 30 min at room temperature or overnight at 4° C. The blocked membrane was incubated with primary antibody (See TABLE 2) diluted in 5% milk for 1 hour at room temperature. Optimal antibody dilution depends on the company, the amount of protein. Dilutions of 1:1000 were generally used for the primary antibodies from Santa Cruz. The membrane was washed with PBS, 0.1% tween 3-4 times 5 mins. The membrane was incubated for 30-60 minutes at room temperature with horseradish peroxidase (HRP) conjugated secondary antibody diluted in 5% milk. We usually used 1:4000 dilution for the secondary antibody from Santa Cruz. The membrane was washed 3-4 times with PBS, 0.1% tween, each time 15 minutes. The detection solutions A and B were mixed in a ratio 40:1 and Pipetted onto the membrane, and incubated for 5 min at RT. A sheet of Hyper film ECL was placed on the top of the membrane in the dark and exposed for 1 min, or adjust accordingly. […]
On the technique in general: In western blotting, separated proteins are transferred to a membrane and probed.

In experiment [1] the test system is HSV-2. Kind of experiment: HSV-2 plaque formation in Vero cells. As to the method:
An important potential consequence of blocking normal vesicle movement between the ER and golgi is the inhibition of viral protein maturation and intracellular propagation. Most viruses rely on the classical ER-to-golgi pathway for assimilating its proteins and, ultimately, infectivity. Brefeldin A causes the accumulation of viral proteins in the ER-golgi. The capacity of AVP 893 to inhibit viral propagation was tested in vitro by infecting Vero cells with HSV-2 and observing the effect of increasing concentrations of drug (FIG. 44). Vero cells (1 million/ml) were cultured overnight and inoculated with about 150 PFU of live type 2 Herpes Virus (HSV-2, ATCC) about 1 hour after addition of AVP 893. After 48 hours, media was removed and the cells washed with saline and stained with Biological Plaque Stain for 20 min. One ml of water was added and the liquid removed before quantifying virus by enumerating PFU.

For experiment [2], the system named is HSV-2. As to the kind of experiment: Spread of HSV-2 in infected cultures (glycoprotein E labeling). Conditions: 300 ng/ml applied 16 hr prior to virus inoculation. As to the method:
(§1) The effect of AVP 893 on the spread of viral infection was further investigated. AVP 893 (at 300 ng/ml) was applied 16 hr prior to virus inoculation. Time points shown in FIG. 45 represent the hours after virus inoculation. […] In addition to the immunocytochemistry work shown in FIG. 45, extensive in vitro plaque assays were performed on HSV-1 and -2, as well as other families of virus that use the golgi in their life cycle (see Table 2).
We determined whether viral particles (as visualized in FIG. 45 by labeling HSV-2 glycoprotein E) spread beyond the initial site of infection in the presence of AVP 893. HSV-2-infected cultures were treated with AVP 893. […] Other HSV proteins including gB, gD, and the capsid protein ICP5 were also examined with similar results (data not shown). […] Furthermore, AVP 893 didn't appear to stop the initial infection of the culture, only the subsequent spread of the virus.

Experiment [3] deals with viruses from families likely to utilize the golgi. Kind of experiment: In vitro testing of other viral families. Conditions: Table 4. As to the method:
as §1
Representative viruses from families likely to utilize the golgi were tested. […] (data not shown).

The next experiment deals with GM-130. As to the kind of experiment: GM-130 expression. Conditions: data not shown. The text has this:
Likewise, the non-resident golgi protein Rab6 appeared to be unaffected in some cell types, as illustrated in FIG. 31.

Regarding `O=C(Nc1ccc(-c2nc3cc(NC(=O)C4CCCCC4)ccc3[nH]2)cc1)C1CCCCC1` [AVP 893], the “golgi structure by electron microscopy” value in the experiment on MOLT4 cells is given as “no golgi cisternae were found”. The Rab6 expression entry with Rab6 (3T3 and PMA/ionomycin-stimulated spleen cells, overnight) is on record as “suppressed Rab6 expression”. Moreover, in the experiment on Rab6 (immunocytochemistry, even after 18 hrs), the Rab6 staining entry was “not diminished nor significantly altered”. In addition, in the experiment with B16F10 cells, the “distribution of Rab 1b and Rab 6 in gradient fractions” value is “retained in the ER at the expense of the golgi compartment”. The Rab1a expression entry in the experiment on Rab1a is recorded as “mild response”. Besides, the plaque formation result with HSV-2 [1] (HSV-2, 48 hours) was “suppressed plaque formation at all concentrations tested”. Also, the “concentration giving total block of plaque formation” value in the experiment on HSV-2 [1] (about 150 PFU HSV-2, 48 hours) turned out to be 300 ng/mL. The “spread of HSV-2 beyond the initial site of infection” value with HSV-2 [2] is recorded as “blocked the spread of HSV-2 virus particles”. Also, in experiment [3], the “spread of other viral families” value was “inhibited”. The GM-130 expression entry in the experiment with GM-130 is “did not appear to be affected”.
